Earlier results on one compound are cited in patent publication US20100099775A1, “METHOD FOR AMELIORATING OF POST-ANESTHETIC RECOVERY” (ALPHARX INC., priority 2008, published 2010).

The subject of data set [1] is cultured cortical neurons. To be noted: also when applied 30 min after the NMDA pulse.
Data set [2] has as its system patients with cerebrovascular disease. To be noted: 90 mg daily; nine patients.
In another data set the test system is patients. To be noted: 5 mg/kg daily for 4-9 months; three patients.
The test system of data set [3] is Friedreich's Ataxia patients. To be noted: oral 5 mg/kg daily for 8 weeks.

As for `COC1=C(OC)C(=O)C(CCCCCCCCCCO)=C(C)C1=O` [Idebenone, 2,3-dimethoxy-5-methyl-6-(10-hydroxydecyl)-1,4 benzoquinone], the “protection of cortical neurons against necrotic degeneration” value in data set [1] was “rescued cortical neurons”. Besides, the “EEG and clinical symptoms” value in data set [2] is “improvements”. The “Solubility in fixed oils” value (fixed oils (soy, corn, almond, etc.)) was “low”. For the same compound, the water solubility result (water) is given as “Low”. Also, in the data set on patients, the left ventricular enlargement entry is reported as “reduction”. Further, in data set [3], the “marker of oxidative DNA damage” value is on record as “significantly decreased”.
